Literature values as cited in patent US12274695B2, “Pharmaceutical drug therapy for autism” (priority 2020, dated 2025).
Where two headings read alike, the source gives them in different places.

Tests used:
[1] = in vivo
humans = details: in humans
fear conditioning = details: preclinical, after fear conditioning
[2] = system: mouse model of Alzheimer's disease (AD)
[3] = system: monkey model of schizophrenia
adults with ASD = details: 7 mg transdermal nicotine, 1 week
[4] = system: BTBR T+Itpr3 tf/J (BTBR) mice

In the case of `CN1C(=O)CC[C@H]1c1cccnc1` [Cotinine], the blood-brain barrier crossing [1] is listed as “crosses the blood-brain barrier”, the “plasma half-life compared with nicotine” value [1] is listed as “longer” and the “addictive or cardiovascular effects” value (humans) is listed as “no addictive or cardiovascular effects”. For the same compound, the “extinction of fear memory and anxiety” value (fear conditioning) was “facilitated”, the working memory [2] was “improved” and the working memory [3] was “improved”.

In the case of `CN1CCCC1c1cccnc1` (stereo not drawn) [nicotine, Nicotine], the Sleep ratings (adults with ASD) is given as “improved”, the “Aberrant Behavior Checklist-Irritability (ABC-I) subscale change from baseline” value (adults with ASD; compared to placebo, five subjects) is given as “improved” and the tolerability (adults with ASD; eight subjects) is given as “tolerated nicotine treatment well”. The repetitive behaviors ([4]; BTBR mice) was “decrease repetitive behaviors”, the social deficits ([4]; BTBR mice) was “improve social deficits” and the “hotplate latency compared to vehicle” value ([4]; BTBR mice, higher doses) was “decreased”. The “hotplate latency compared to vehicle” value ([4]; BTBR mice, lower doses) was “increased”, the “antinociceptive effects to noxious heat” value ([4]; control mice) was “only at the high dose” and the cold plate resistance ([4]; mice with Autism mutations, four-week nicotine treatment) was “increase”.
